Assay results reported in US11597708B2, “Inhibitors of heat shock factors and uses thereof” (HSF Pharmaceuticals SA, priority 2016, dated 2023).

Experiments:
HSE DNA-binding activity = biological target: T1, HSE DNA-binding activity (Homo sapiens, UniProt Q00613); assay: EMSA using extracts of heat-treated HeLa cells, in the presence of IHSF; type: biochemical; conditions: extracts of HeLa cells heat-treated at 43° C. for 30 min; concentrations as high as about 0.5 mM
T1 construct: functionally linked to an hsp70b promoter and therefore controlled by endogenous HSF1; endogenous in cells; host or cells: HeLa cells / HeLa-derived cell line Z74
T1 sequence (Q00613 1-529): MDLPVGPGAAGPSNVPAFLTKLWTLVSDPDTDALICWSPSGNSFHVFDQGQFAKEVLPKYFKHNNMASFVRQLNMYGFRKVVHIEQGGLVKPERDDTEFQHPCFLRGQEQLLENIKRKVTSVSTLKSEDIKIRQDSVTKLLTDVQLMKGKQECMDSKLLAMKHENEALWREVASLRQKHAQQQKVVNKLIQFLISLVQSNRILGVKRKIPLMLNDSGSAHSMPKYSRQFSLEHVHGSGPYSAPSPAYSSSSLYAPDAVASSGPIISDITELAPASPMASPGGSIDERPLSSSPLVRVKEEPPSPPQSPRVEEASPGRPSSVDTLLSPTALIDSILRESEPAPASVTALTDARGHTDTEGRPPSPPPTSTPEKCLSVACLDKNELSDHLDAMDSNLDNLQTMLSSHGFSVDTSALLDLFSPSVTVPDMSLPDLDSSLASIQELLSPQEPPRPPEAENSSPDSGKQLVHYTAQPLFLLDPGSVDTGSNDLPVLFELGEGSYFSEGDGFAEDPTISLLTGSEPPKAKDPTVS
Procedure: Electrophoretic mobility shift assays (EMSA) using a radiolabeled HSE DNA probe were carried out to assess HSF1 DNA-binding activity in extracts of heat-treated (43° C./30 min) HeLa cells that had been exposed to different concentrations of compounds 058 or 115 (FIG. 3A, top panels). […] HSF1 degradation correlated well with the observed decrease in DNA-binding activity. Therefore, HSF1 degradation provides a sufficient explanation for the reduced HSE DNA-binding activity in cells treated with IHSF 058. […] EMSA were also carried out using extracts of HeLa cells that had been heat-treated at 43° C. for 30 min.

[1] = system: multiple myeloma MM.1S cells; assay: Analysis of mechanism of cell death in MM.1S cells; type: cell-based, human; conditions: in contrast to HeLa cells (non-apoptotic mechanism)
PC-3 tumor xenograft = assay: Human prostate cancer PC-3 xenograft model in athymic mice; type: in vivo; conditions: for tumor growth: period of daily administration (7 days)
Procedure: Prostate cancer cell line PC-3 was obtained from ATTC and grown in tissue culture under standard conditions. Groups (8 animals) of athymic mice (6-7 weeks old, male, obtained from Harlan) were inoculated subcutaneously on the right flank with 5×10^6 PC-3 cells. Cells were administered as a 1:1 mixture of cells in medium and Matrigel. Treatment was initiated when tumor size reached about 200 mg, at which time the mice were randomized. Of the various groups in the experiment, one group received a daily intravenous dose (via the tail vein) of 2 mg IHSF 115 in an aqueous solution of Kleptose HPB (see Example 2.1) for 7 days, followed by additional dosing with 2 mg IHSF 115 every other day. Another group received a daily dose of 0.8 mg IHSF 115 in an aqueous solution of Kleptose HPB (see Example 2.1) for 7 days, followed by additional dosing with 0.8 mg IHSF 115 every other day. A control group was subjected to same regimen, administering vehicle (Kleptose HPB solution) only. Tumor size and weight were assessed periodically and recorded. Tumor size was estimated using calipers. Calculation: tumor weight (mg)=(a×b^2/2) where ‘b’ is the smallest diameter and ‘a’ is the largest diameter. […] Loss of weight for the period was less than 4%.

| Structure (SMILES) | HSE DNA-binding activity (EMSA) in the presence of IHSF (HSE DNA-binding activity) | mechanism of cell death of MM.1S cells [1] | tumor growth (PC-3 tumor xenograft; 0.8 mg daily dose in aqueous Kleptose HPB) | tumor growth (PC-3 tumor xenograft; 2 mg daily intravenous in aqueous Kleptose HPB) | toxicity (PC-3 tumor xenograft; athymic mice, intravenous via the tail vein) | Loss of weight for the period (PC-3 tumor xenograft; period of daily administration) |
| --- | --- | --- | --- | --- | --- | --- |
| CCOC(=O)/C=C/C(=O)Nc1nccs1 [IHSF 001, (E)-ethyl 4-oxo-4-(thiazol-2-ylamino)but-2-enoate] | no reduction | – | – | – | – | – |
| CN(C(=O)/C=C/C1=NCCCO1)c1ncc(-c2cccnc2)s1 [IHSF 115, (E)-3-(5,6-Dihydro-4H-[1,3]oxazin-2-yl)-N-methyl-N-(5-pyridin-3-yl-thiazol-2-yl)-acrylamide] | – | prominent apoptotic component | smaller effect | substantial (and statistically significant) reduction in tumor growth | No toxicity was observed, except for some local swelling in the inoculation region | less than 4% |
